Drawing on patent publication US20200055839A1 (priority 2017, published 2020), this text covers EC50 for 19 molecules.

Each structure is given as a SMILES string. pEC50: −log10 of the molar value.

For the experiment, the system named is NL-RLuc virus. The experiment is described as follows: Inhibition of HIV replication (NL-RLuc virus, luciferase readout in MT-2 cells). Type of experiment: cell-based. To be noted: Human immunodeficiency virus 1, MT2, 120 h, MT-2 cells infected with NL-RLuc virus, 5 days of incubation, 10% FBS, at least 2 experiments. The gist of the method: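 EC50 derived via median effect equation from at least 2 experiments, using luciferase expression as virus-growth readout. Replication-competent NL-RLuc reporter virus (nef partly replaced by Renilla luciferase) infected MT-2 cells with serial compound dilutions; 5-day incubation in RPMI 1640 plus 10% FBS.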
In the case of `Cc1ncc(-c2ccc(OCCc3cccc(Cl)c3)cn2)c(N2CCC(C)(C)CC2)c1[C@H](OC(C)(C)C)C(=O)O` [Example 308, (2S)-2-(tert-butoxy)-2-{5-[2-(3-chlorophenyl)ethoxy]-4′-(4,4-dimethylpiperidin-1-yl)-6′-methyl-[2,3′-bipyridine]-5′-yl}acetic acid], the pEC50 (in general, the EC50 on a negative log10 scale, so that one unit is a factor of ten) was 9.15.

As to `Cc1ncc(-c2cnc(OCCc3c(F)cccc3F)c(F)c2)c(N2CCC(C)(C)CC2)c1[C@H](OC(C)(C)C)C(=O)O` [Example 393, (2S)-2-(tert-butoxy)-2-{6′-[2-(2,6-difluorophenyl)ethoxy]-4-(4,4-dimethylpiperidin-1-yl)-5′-fluoro-6-methyl-[3,3′-bipyridine]-5-yl}acetic acid], the pEC50 is 8.70.

As for `Cc1nc(OCC(C)C)c(Cl)cc1-c1cnc(C)c([C@H](OC(C)(C)C)C(=O)O)c1N1CCC(C)(C)CC1` [Example 425, (S)-2-(tert-Butoxy)-2-(5′-chloro-4-(4,4-dimethylpiperidin-1-yl)-6′-isobutoxy-2′,6-dimethyl-[3, 3′-bipyridin]-5-yl)acetic acid], the pEC50 is 6.90. `Cc1nc(-c2cn(C)cn2)c(-c2ccc(OCCc3ccc(F)cc3)cc2)c(N2CCC(C)(C)CC2)c1[C@H](OC(C)(C)C)C(=O)O` [Example 57, (S)-2-(tert-Butoxy)-2-(4-(4,4-dimethylpiperidin-1-yl)-5-(4-(4-fluorophenethoxy)phenyl)-2-methyl-6-(1-methyl-1H-imidazol-4-yl)pyridin-3-yl)acetic acid] had a pEC50 of 7.89. Compared with the last molecule, the pEC50 is 0.99 log units higher.

For the molecule `Cc1ncc(-c2cccc(C(N)=O)c2)c(N2CCC(C)(C)CC2)c1[C@H](OC(C)(C)C)C(=O)O` [Example 146, (2S)-2-(tert-Butoxy)-2-[5-(3-carbamoylphenyl)-4-(4,4-dimethylpiperidin-1-yl)-2-methylpyridin-3-yl]acetic acid], the negative logarithm of the EC50 (pEC50) was 6.85.

`CCCCCOc1ccc(-c2cnc(C)c([C@H](OC(C)(C)C)C(=O)O)c2N2CCC(C)(C)CC2)nc1` [Example 317, (2S)-2-(tert-butoxy)-2-[4′-(4,4-dimethylpiperidin-1-yl)-6′-methyl-5-(pentyloxy)-[2,3′-bipyridine]-5′-yl]acetic acid] had a pEC50 of 9.00. For `CCC(C)(C)O[C@H](C(=O)O)c1c(C)ncc(-c2ncc(OCCc3ccc(F)cc3)cn2)c1N1CCC(C)(C)CC1` [Example 247, (S)-2-(4-(4,4-Dimethylpiperidin-1-yl)-5-(5-(4-fluorophenethoxy)pyrimidin-2-yl)-2-methylpyridin-3-yl)-2-(tert-pentyloxy)acetic acid], the pEC50 was 9.10. Next, `Cc1nc(NCc2cccnc2)c(-c2ccc(OCCc3ccc(F)cc3)cc2)c(N2CCC(C)(C)CC2)c1[C@H](OC(C)(C)C)C(=O)O` [Example 92, (S)-2-(tert-Butoxy)-2-(4-(4,4-dimethylpiperidin-1-yl)-5-(4-(4-fluorophenethoxy)phenyl)-2-methyl-6-((pyridin-3-ylmethyl)amino)pyridin-3-yl)acetic acid]: 8.40; `Cc1ncc(-c2cc(F)c(CNc3ncnc4c3oc3ccccc34)c(F)c2)c(N2CCC(C)(C)CC2)c1[C@H](OC(C)(C)C)C(=O)O` [Example 219, (S)-2-(5-(4-((Benzofuro[3,2-d]pyrimidin-4-ylamino)methyl)-3,5-difluorophenyl)-4-(4,4-dimethylpiperidin-1-yl)-2-methylpyridin-3-yl)-2-(tert-butoxy)acetic acid]: 8.70. Next, `Cc1ncc(-c2cccc(-c3cccc(Cl)c3)c2)c(N2CCC(C)(C)CC2)c1[C@H](OC(C)(C)C)C(=O)O` [Example 144, (2S)-2-(tert-butoxy)-2-(5-{3′-chloro-[1,1′-biphenyl]-3-yl}-4-(4,4-dimethylpiperidin-1-yl)-2-methylpyridin-3-yl)acetic acid]: 7.11; `COc1cccc(CCOc2ncc(-c3cnc(C)c([C@H](OC(C)(C)C)C(=O)O)c3N3CCC(C)(C)CC3)cc2F)c1` [Example 383, (2S)-2-(tert-butoxy)-2-[4-(4,4-dimethylpiperidin-1-yl)-5′-fluoro-6′-[2-(3-methoxyphenyl)ethoxy]-6-methyl-[3,3′-bipyridine]-5-yl]acetic acid]: 8.52. `Cc1nc(CO)c(-c2ccc(F)c(F)c2)c(N2CCC(C)(C)CC2)c1[C@H](OC(C)(C)C)C(=O)O` [Example 140, (2S)-2-(tert-Butoxy)-2-[5-(3,4-difluorophenyl)-4-(4,4-dimethylpiperidin-1-yl)-6-(hydroxymethyl)-2-methylpyridin-3-yl]acetic acid] had a pEC50 of 7.28. This pEC50 is 1.24 log units lower than that of the molecule before. In turn, `Cc1ncc(-c2ccc(OCCC(C)C)cc2)c(N2CCC(C)(C)CC2)c1[C@H](OC(C)(C)C)C(=O)O` [Example 361, (2S)-2-(tert-butoxy)-2-[4-(4,4-dimethylpiperidin-1-yl)-2-methyl-5-[4-(3-methylbutoxy)phenyl]pyridin-3-yl]acetic acid] had a pEC50 of 8.40. `CC1(C)CCN(c2c(-c3ccc(OCCc4ccc(F)cc4)c(F)c3)c(CN3CCC4(CCC4)CC3)nc(Cl)c2[C@H](OC(C)(C)C)C(=O)O)CC1` [Example 210, (S)-2-(6-((7-Azaspiro[3.5]nonan-7-yl)methyl)-2-chloro-4-(4,4-dimethylpiperidin-1-yl)-5-(3-fluoro-4-(4-fluorophenethoxy)phenyl)pyridin-3-yl)-2-(tert-butoxy)acetic acid] had a pEC50 of 8.70. Consider `Cc1nc(Nc2ccccc2)c(-c2ccc(OCCc3ccc(F)cc3)cc2)c(N2CCC(C)(C)CC2)c1[C@H](OC(C)(C)C)C(=O)O` [Example 67, (S)-2-(tert-Butoxy)-2-(4-(4,4-dimethylpiperidin-1-yl)-5-(4-(4-fluorophenethoxy)phenyl)-2-methyl-6-(phenylamino)pyridin-3-yl)acetic acid], for which the pEC50 was 7.57. `Cc1ncc(-c2cnc(OCCc3ccc(Cl)cc3Cl)c(F)c2)c(N2CCC(C)(C)CC2)c1[C@H](OC(C)(C)C)C(=O)O` [Example 234, (S)-2-(tert-Butoxy)-2-(6′-(2,4-dichlorophenethoxy)-4-(4,4-dimethylpiperidin-1-yl)-5′-fluoro-6-methyl-[3, 3′-bipyridin]-5-yl)acetic acid] gave a pEC50 of 8.40. Next, `COc1ccc(CCOc2ncc(-c3cnc(C)c([C@H](OC(C)(C)C)C(=O)O)c3N3CCC(C)(C)CC3)cc2F)cc1` [Example 374, (2S)-2-(tert-butoxy)-2-[4-(4,4-dimethylpiperidin-1-yl)-5′-fluoro-6′-[2-(4-methoxyphenyl)ethoxy]-6-methyl-[3,3′-bipyridine]-5-yl]acetic acid]: 9.52; `Cc1ncc(-c2ccc(OCCc3ccc(F)cc3)c(F)c2)c(N2CCC(C)(C)CC2)c1[C@H](OC(C)(C)C)C(=O)O` [Example 122, (S)-2-(tert-Butoxy)-2-(4-(4,4-dimethylpiperidin-1-yl)-5-(3-fluoro-4-(4-fluorophenethoxy)phenyl)-2-methylpyridin-3-yl)acetic acid]: 9.00; `Cc1nc(NCCN2CCN(C)CC2)c(-c2ccc(OCCc3ccc(F)cc3)cc2)c(N2CCC(C)(C)CC2)c1[C@H](OC(C)(C)C)C(=O)O` [Example 43, (S)-2-(tert-Butoxy)-2-(4-(4,4-dimethylpiperidin-1-yl)-5-(4-(4-fluorophenethoxy)phenyl)-2-methyl-6-((2-(4-methylpiperazin-1-yl)ethyl)amino)pyridin-3-yl)acetic acid]: 9.22.
